# Measured values as given in US11666539B2, “Synthetic lipid-like materials for brain delivery” (Trustees of Tufts College, priority 2020, dated 2023).
# Tested on: flox-stop-flox tdTomato construct
# Assay: (-27)GFP-Cre protein delivery, tdTomato expression in Ai14 mouse brain
# Type: in vivo
# Conditions: (-27)GFP-Cre/LNP weight ratio 1/4; four i.v. injections of 50 μg protein; brain slices, fluorescence imaging
# From the text: GFP fused Cre recombinase was chosen as a model protein for the study, using the Ail4 model mouse line (FIG. 4A). The Ail4 mouse line contains a flox-stop-flox tdTomato construct. The successful intracellular delivery of Cre protein into the cells of Ail4 mouse leads to the gene recombination and turns on the tdTomato expression which can be directly visualized as red fluorescence signal without additional staining. Here, (−27)GFP-Cre protein was used. NT1-O14B LNPs doped with PBA-Q76-O16B was chosen, as these nanoparticles could successfully deliver (−27)GFP-Cre. The weight ratio of NT1-O14B and PBA-Q76-O16B was fixed at 3:7, based on the results observed from the AmB and ASO delivery. Lipid formulations were prepared using the approaches described for the formulation for ASO delivery. Briefly, the (−27)GFP-Cre protein was mixed with LNPs at a weight ratio of 1/4 and incubated the solution for 15 min at room temperature before intravenous injection. Mice were injected four times with a dose of 50 μg protein per injection. Five days after the last injection, the mice were sacrificed and brain tissues were collected, fixed, and dehydrated. Then the tissues were cryo-sectioned into […] slices and counter-stained with DAPI for fluorescence imaging.
compound,measurement,value
CCCCCCCCCCCCSSCCOC(=O)CC[N+](CCC(=O)OCCSSCCCCCCCCCCCC)(CCN1CCCC1)Cc1ccc(B(O)O)cc1 [PBA-Q76-O16B],tdTomato expression in the brain,no tdTomato expression
